According to patent US20230085307A1, “PYRIDAZINONE COMPOUND AND HERBICIDE” (NISSAN CHEMICAL CORPORATION, priority 2019, published 2023):

Key:
late watergrass = assay: Test Example 2: herbicidal activity, application during weed generation under submerged conditions (Table 17, symbol A); type: in vivo, late watergrass (Echinochloa oryzicola); details: AAH 320 g/ha; application during weed generation, submerged conditions
Procedure: (§1) [Test Example 2] Herbicidal Activity Test by Application during Weed Generation under Submerged Conditions After alluvial soil was placed into 1/10000 are of Wagner pot, water was poured and mixed to form a submerged condition having a water depth of 4 cm. Seeds of late watergrass, Japanese bulrush, and oval-leafed pondweed were sowed in a mixed manner in the aforementioned pot, and the pot was placed in a greenhouse at 25° C. to 30° C. for growth of the plants. When late watergrass, Japanese bulrush, and oval-leafed pondweed were grown to one leaf stage to two leaf stage, the emulsion agent of the compound of the present invention prepared according to Formulation Example 2 was diluted with water so as to achieve a predetermined herbicide amount, and the diluted emulsion agent was applied to the surface of the water. Three weeks after the herbicide application, the effect of the herbicide on each plant was evaluated according to the criteria of Test Example 1.

Japanese bulrush = assay: Test Example 2: herbicidal activity, application during weed generation under submerged conditions (Table 17, symbol B); type: in vivo, Japanese bulrush (Schoenoplectus juncoides); details: AAH 320 g/ha; application during weed generation, submerged conditions
Procedure: as §1

oval-leafed pondweed = assay: Test Example 2: herbicidal activity, application during weed generation under submerged conditions (Table 17, symbol C); type: in vivo, oval-leafed pondweed (Monochoria vaginalis); details: AAH 320 g/ha; application during weed generation, submerged conditions
Procedure: as §1

barnyard grass [1] = assay: Test Example 3: herbicidal effect by foliage application, Wagner pot (Table 18, symbol H); type: in vivo, barnyard grass (Echinochloa crus-galli)
In short: (§2)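 Plants were sown in alluvial soil held under 0.1–0.5 cm standing water and grown 14 days in a greenhouse at 25–30 °C. An emulsifiable formulation, water-diluted to the set dose, was then sprayed onto the foliage, and effects were scored three weeks later using previously defined criteria.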

Chinese sprangletop = assay: Test Example 3: herbicidal effect by foliage application, Wagner pot (Table 18, symbol D); type: in vivo, chinese sprangletop (Leptochloa chinensis)
In short: as §2

rice flat sedge = assay: Test Example 3: herbicidal effect by foliage application, Wagner pot (Table 18, symbol E); type: in vivo, rice flat sedge (Cyperus iria)
In short: as §2

southern crabgrass = assay: Test Example 5: herbicidal effect by foliage application, plastic box (Table 20, symbol F); type: in vivo, southern crabgrass (Digitaria ciliaris); details: foliage application, evaluated three weeks after application
In short: (§3)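 Plants were sown into sterilized diluvial soil under about 1.5 cm cover and kept in a greenhouse at 25° C. to 30° C. Fourteen days on, foliage received an even spray of the diluted emulsion. Herbicidal or crop effect was judged three weeks afterwards.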

green foxtail = assay: Test Example 5: herbicidal effect by foliage application, plastic box (Table 20, symbol G); type: in vivo, green foxtail (Setaria viridis); details: foliage application, evaluated three weeks after application
In short: as §3

barnyard grass [2] = assay: Test Example 5: herbicidal effect by foliage application, plastic box (Table 20, symbol H); type: in vivo, barnyard grass (Echinochloa crus-galli); details: foliage application, evaluated three weeks after application
In short: as §3

wild oat = assay: Test Example 5: herbicidal effect by foliage application, plastic box (Table 20, symbol I); type: in vivo, wild oat (Avena fatua); details: foliage application, evaluated three weeks after application
In short: as §3

blackgrass = assay: Test Example 5: herbicidal effect by foliage application, plastic box (Table 20, symbol J); type: in vivo, blackgrass (Alopecurus myosuroides); details: foliage application, evaluated three weeks after application
In short: as §3

Italian ryegrass = assay: Test Example 5: herbicidal effect by foliage application, plastic box (Table 20, symbol K); type: in vivo, Italian ryegrass (Lolium multiflorum); details: foliage application, evaluated three weeks after application
In short: as §3

windgrass = assay: Test Example 5: herbicidal effect by foliage application, plastic box (Table 20, symbol L); type: in vivo, windgrass (Apera spica-venti); details: foliage application, evaluated three weeks after application
In short: as §3

velvetleaf = assay: Test Example 5: herbicidal effect by foliage application, plastic box (Table 20, symbol M); type: in vivo, velvetleaf (Abutilon theophrasti); details: foliage application, evaluated three weeks after application
In short: as §3

redroot pigweed = assay: Test Example 5: herbicidal effect by foliage application, plastic box (Table 20, symbol N); type: in vivo, redroot pigweed (Amaranthus retroflexus); details: foliage application, evaluated three weeks after application
In short: as §3

lambsquarters = assay: Test Example 5: herbicidal effect by foliage application, plastic box (Table 20, symbol O); type: in vivo, lambsquarters (Chenopodium album); details: foliage application, evaluated three weeks after application
In short: as §3

chickweed = assay: Test Example 5: herbicidal effect by foliage application, plastic box (Table 20, symbol P); type: in vivo, common chickweed (Stellaria media); details: foliage application, evaluated three weeks after application
In short: as §3

persian speedwell = assay: Test Example 5: herbicidal effect by foliage application, plastic box (Table 20, symbol R); type: in vivo, Persian speedwell (Veronica persica); details: foliage application, 320 g/ha, evaluated three weeks after application
In short: as §3

[3] = amount of applied herbicide 320 g/ha

Cc1nn(C)c(=O)c(-c2c(-c3ccc(OCc4ccccc4)cc3)sc3ccc(F)cc23)c1OCc1ccccc1 [2-065]
herbicidal effect rating, A: late watergrass (late watergrass): 3 (Herbicidal rate of 40% or more and less than 70%)
herbicidal effect rating, B: Japanese bulrush (Japanese bulrush): 0 (Herbicidal rate of 5% or less (almost no effect))
herbicidal effect rating, C: oval-leafed pondweed (oval-leafed pondweed): 0 (Herbicidal rate of 5% or less (almost no effect))
herbicidal effect on H (barnyard grass), rating 0-5 (barnyard grass [1]; 320 g/ha): 3 (Herbicidal rate of 40% or more and less than 70%)
herbicidal effect on D (Chinese sprangletop), rating 0-5 (Chinese sprangletop; 320 g/ha): 3 (Herbicidal rate of 40% or more and less than 70%)
herbicidal effect on E (rice flat sedge), rating 0-5 (rice flat sedge; 320 g/ha): 3 (Herbicidal rate of 40% or more and less than 70%)
herbicidal effect on F: southern crabgrass (southern crabgrass; 320 g/ha): 0 (Herbicidal rate of 5% or less (almost no effect))
herbicidal effect on G: green foxtail (green foxtail; 320 g/ha): 0 (Herbicidal rate of 5% or less (almost no effect))
herbicidal effect on H: barnyard grass (barnyard grass [2]; 320 g/ha): 0 (Herbicidal rate of 5% or less (almost no effect))
herbicidal effect on I: wild oat (wild oat; 320 g/ha): 0 (Herbicidal rate of 5% or less (almost no effect))
herbicidal effect on J: blackgrass (blackgrass; 320 g/ha): 0 (Herbicidal rate of 5% or less (almost no effect))
herbicidal effect on K: Italian ryegrass (Italian ryegrass; 320 g/ha): 0 (Herbicidal rate of 5% or less (almost no effect))
herbicidal effect on L: windgrass (windgrass; 320 g/ha): 0 (Herbicidal rate of 5% or less (almost no effect))
herbicidal effect on M: velvetleaf (velvetleaf; 320 g/ha): 0 (Herbicidal rate of 5% or less (almost no effect))
herbicidal effect on N: redroot pigweed (redroot pigweed; 320 g/ha): 3 (Herbicidal rate of 40% or more and less than 70%)
herbicidal effect on O: lambsquarters (lambsquarters; 320 g/ha): 1 (Herbicidal rate of 5% or more and less than 20%)
herbicidal effect on P: chickweed (chickweed; 320 g/ha): 0 (Herbicidal rate of 5% or less (almost no effect))
herbicidal effect on R: persian speedwell (persian speedwell): 0 (Herbicidal rate of 5% or less (almost no effect))

COCCOc1cccc(-c2sc3ccc(F)cc3c2-c2c(O)c(C)nn(C)c2=O)c1 [2-271]
herbicidal effect rating, A: late watergrass (late watergrass): 3 (Herbicidal rate of 40% or more and less than 70%)
herbicidal effect rating, B: Japanese bulrush (Japanese bulrush): 0 (Herbicidal rate of 5% or less (almost no effect))
herbicidal effect rating, C: oval-leafed pondweed (oval-leafed pondweed): 0 (Herbicidal rate of 5% or less (almost no effect))
herbicidal effect on H: barnyard grass (barnyard grass [1]; [3]): 3 (Herbicidal rate of 40% or more and less than 70%)
herbicidal effect on D: Chinese sprangletop (Chinese sprangletop; [3]): 0 (Herbicidal rate of 5% or less (almost no effect))
herbicidal effect on E: rice flat sedge (rice flat sedge; [3]): 3 (Herbicidal rate of 40% or more and less than 70%)
F: southern crabgrass, herbicidal effect (criteria 0-5) (southern crabgrass; AAH 320 g/ha): 0 (Herbicidal rate of 5% or less (almost no effect))
G: green foxtail, herbicidal effect (criteria 0-5) (green foxtail; AAH 320 g/ha): 0 (Herbicidal rate of 5% or less (almost no effect))
H: barnyard grass, herbicidal effect (criteria 0-5) (barnyard grass [2]; AAH 320 g/ha): 0 (Herbicidal rate of 5% or less (almost no effect))
I: wild oat, herbicidal effect (criteria 0-5) (wild oat; AAH 320 g/ha): 0 (Herbicidal rate of 5% or less (almost no effect))
J: blackgrass, herbicidal effect (criteria 0-5) (blackgrass; AAH 320 g/ha): 0 (Herbicidal rate of 5% or less (almost no effect))
K: Italian ryegrass, herbicidal effect (criteria 0-5) (Italian ryegrass; AAH 320 g/ha): 0 (Herbicidal rate of 5% or less (almost no effect))
L: windgrass, herbicidal effect (criteria 0-5) (windgrass; AAH 320 g/ha): 0 (Herbicidal rate of 5% or less (almost no effect))
M: velvetleaf, herbicidal effect (criteria 0-5) (velvetleaf; AAH 320 g/ha): 0 (Herbicidal rate of 5% or less (almost no effect))
N: redroot pigweed, herbicidal effect (criteria 0-5) (redroot pigweed; AAH 320 g/ha): 3 (Herbicidal rate of 40% or more and less than 70%)
O: lambsquarters, herbicidal effect (criteria 0-5) (lambsquarters; AAH 320 g/ha): 0 (Herbicidal rate of 5% or less (almost no effect))
P: chickweed, herbicidal effect (criteria 0-5) (chickweed; AAH 320 g/ha): 5 (Herbicidal rate of 90% or more (almost completely withered))
